By MIC is commonly meant the least concentration at which growth counts as inhibited. The term IC50 denotes the point on the concentration scale where inhibition reaches its midpoint. Higher therefore signals weaker potency.

SMILES strings stand for the structures. In brackets after ≈: the same amount, converted by molar mass. Activity calls are given as the source filed them. No cut-off for these calls is given here.

The test system of one data set is Fusobacterium nucleatum. The data set can be described thus: Growth inhibition of Fusobacterium nucleatum ATCC 25586 up to 3 mM after 24 hrs by broth microdilution method. On the technique in general: In broth dilution the organism is exposed to a series of concentrations in liquid medium.
Data set [1] relates to Porphyromonas gingivalis. The data set can be described thus: Antibacterial activity against Porphyromonas gingivalis W83 after 24 hrs by broth microdilution method. The following applies: W83, 24 h. The data set is classed as functional.
For the next data set, the system named is Staphylococcus aureus. The data set can be described thus: Growth inhibition of Staphylococcus aureus N315 up to 3 mM after 24 hrs by broth microdilution method.
The target of data set [2] is T1, Meso-diaminopimelate D-dehydrogenase (Porphyromonas gingivalis (strain ATCC BAA-308 / W83), UniProt Q7MW40).
T1 sequence (Q7MW40 whole entry): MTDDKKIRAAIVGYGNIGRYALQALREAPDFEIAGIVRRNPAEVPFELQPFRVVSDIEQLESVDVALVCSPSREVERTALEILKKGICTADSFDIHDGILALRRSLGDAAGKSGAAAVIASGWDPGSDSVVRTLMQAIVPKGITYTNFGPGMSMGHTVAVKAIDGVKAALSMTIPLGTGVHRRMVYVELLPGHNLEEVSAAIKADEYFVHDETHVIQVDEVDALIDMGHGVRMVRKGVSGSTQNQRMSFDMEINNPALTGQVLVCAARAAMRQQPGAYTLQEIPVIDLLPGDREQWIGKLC
The data set can be described thus: Inhibition of Porphyromonas gingivalis m-Ddh expressed in Escherichia coli BL21 (DE3) pLysS at pH 7.8 using meso-diaminopimelate as substrate by spectrophotometric method.

The subject of data set [3] is Porphyromonas gingivalis. The data set can be described thus: Antibacterial activity against Porphyromonas gingivalis ATCC 33277 after 24 hrs by broth microdilution method. The data set is classed as functional. The following applies: ATCC 33277, 24 h.
The target of data set [4] is T1, Meso-diaminopimelate D-dehydrogenase. Nature of the data set: Inhibition of Porphyromonas gingivalis m-Ddh expressed in Escherichia coli BL21 (DE3) pLysS at pH 10.5 using meso-diaminopimelate as substrate by spectrophotometric method.
In data set [5] the target is T2, Meso-diaminopimelate D-dehydrogenase (Porphyromonas gingivalis (strain ATCC BAA-308 / W83)) (UniProt Q7MW40).
T2 sequence (whole entry): T1 sequence (Q7MW40 whole entry)
Nature of the data set: Inhibition of Porphyromonas gingivalis m-Ddh expressed in Escherichia coli BL21 (DE3) pLysS up to 1 mM at pH 7.8 using meso-diaminopimelate as substrate by spectrophotometric method.

Data set [6] has as its target T2, Meso-diaminopimelate D-dehydrogenase (Porphyromonas gingivalis (strain ATCC BAA-308 / W83)). The data set can be described thus: Inhibition of Porphyromonas gingivalis m-Ddh expressed in Escherichia coli BL21 (DE3) pLysS up to 3 mM at pH 10.5 using meso-diaminopimelate as substrate by spectrophotometric method.

As for `N[C@@H](C[C@H]1CC(C(=O)O)=NO1)C(=O)O`, the “growth inhibition (GI)” value in the data set on Fusobacterium nucleatum and in the data set on Staphylococcus aureus was “Non-Toxic” each time. For the same compound, the MIC in the data set with Porphyromonas gingivalis [1] was determined as 773 µM (≈ 156 µg/mL); against Porphyromonas gingivalis [3], 1880 µM (≈ 379 µg/mL). In addition, the IC50 in data set [2] was found to be 14.9 µM; in data set [4], 211 µM.
In the case of `N[C@@H](C[C@@H]1CC(C(=O)O)=NO1)C(=O)O`, the inhibition result in data set [5] and in data set [6] was “inactive” each time.

These data come from ChEMBL document CHEMBL4052728, “Diaminopimelic acid (DAP) analogs bearing isoxazoline moiety as selective inhibitors against meso-diaminopimelate dehydrogenase (m-Ddh) from Porphyromonas gingivalis” (Bioorg Med Chem Lett, 2017).
